Series [1] concerns SKOV3 cells. The series is described as follows: Immunoblotting of DNA damage response markers. The format is cell-based, human. As to conditions: up to 48 h and 72 h. The protocol: The ability of 2 to induce DNA damage was investigated by monitoring changes in expression of markers of the damage response pathway by immunoblotting analyses.
Cells were washed with PBS, scraped into SDS-PAGE loading buffer (64 mM Tris-HCl (pH 6.8)/9.6% glycerol/2% SDS/5% β-mercaptoethanol/0.01% Bromophenol Blue), and incubated at 95° C. for 10 min. Whole cell lysates were resolved by 4-20% sodium dodecylsulphate polyacylamide gel electrophoresis (SDS-PAGE; 200 V for 25 min) followed by electro transfer to polyvinylidene difluoride membrane, PVDF (350 mA for 1 h). Membranes were blocked in 5% (w/v) bovine serum albumin in PBST (PBS/0.1% Tween 20) and incubated with the appropriate primary antibodies (Cell Signalling Technology and Santa Cruz). After incubation with horseradish peroxidase-conjugated secondary antibodies (Cell Signalling Technology), 1:1000, immuno complexes were detected with the ECL detection reagent (BioRad) and analyzed using UVP biospectrum imaging system fitted with a chemiluminescence filter.

A short description of series [2]: In vivo blood stability in mice. The protocol: The hydrophobic complex 2 was extracted with octanol, diluted, and the Pt concentration was determined by GFAAS.
The octanol extracts were diluted with methanol and analysed by GFAAS.

Another series concerns the target HSA (Homo sapiens, UniProt P02768). As to the kind of experiment: HSA binding (FPLC, GFAAS, ESI-MS). The conditions noted are these: ESI mass-spectrometric analysis.
For another series, the system named is T-cells. As to the kind of experiment: Mixed leukocyte reaction (T-cell proliferation), PBMC/SKOV3 coculture. The format is cell-based, human. The conditions noted are these: SKOV3/MLR coculture, 2 10 μM, 6 days, CFSE flow cytometry. How it is done: To target a key component of the immunosuppression promoting IDO-AHR-IL6 loop, the immunomodulatory phenotype of 2 was investigated. A mixed leukocyte reaction (MLR) was carried out. In this experiment, suspended 2×10^5 peripheral blood mononuclear cells (PBMCs) stimulated with phytohemagglutinin (PHA-P), and 2×10^5 cells of PBMCs from unrelated healthy donors as responders stained with carboxyfluorescein succinimidyl ester (CFSE), a cell permeable fluorescent dye that binds amine residues (mostly lysines) covalently, through its succinimidyl ester group were cocultured with adherent SKOV-3 (2000 cells). After 6 days of culture, PBMCs were harvested by centrifugation of medium, stained with APC-anti CD3 and T-cell proliferation was assessed by flow cytometry. T-cells express CD3, a cell surface multimeric protein complex involved in T-cell development and activation.
SKOV3 cells (2×10^3) were seeded in 6-well plates. […] The T-cell population of PBMCs was measured by FACS Calibur-HTS flow cytometer (BD Biosciences) after staining with APC-anti CD3 antibody. PHA-P stimulated PBMCs (2×10^5) and carboxyfluorescein succinimidyl ester (CFSE) stained PBMCs (2×10^5) from unrelated donors were added in co-cultures of SKOV3 tumor cells (treated and untreated) and incubated for six days at 37° C., the and CFSE signal analyzed by flow cytometry on days 1 and 6.

Series [3] can be described thus: Whole human blood stability test. The format is in vitro ADME. The protocol: To a volume of 0.8 mL fresh whole human blood (Innovative Research, Novi, Mich.) was added 24 μL of a DMSO solution of 2 (2.0 mM), resulting in a final concentration of 60 μM. After 5 sec of vortexing, a 100 μL aliquot of the blood sample (0 h time point) was immediately transferred to a new tube containing 300 μL of octanol, and the remaining […] of blood was incubated at 37° C. with rotation (1100 rpm). The blood-octanol mixture was vortexed for 2 min at R.T. and then centrifuged to separate the phases. The isolated octanol extract was diluted with methanol for GFAAS measurement. At varying time points (1 h, 2 h, 3 h, 5 h, and 7 h), a 100 μL aliquot was removed from the incubating blood and extracted as described above. For the 7 h sample, analytical HPLC was employed to confirm the integrity of the Pt compound. A standard of 2 and an octanol extract from blank whole human blood were used for comparison.

For series [4], the system named is SKOV3 cells. The series is described as follows: Annexin V/sytox green apoptosis dead cell assay. The format is cell-based, human. As to conditions: 72 h of treatment. From the text: Therapeutic nanoparticles (NPs) have been widely investigated for their potential to enhance cancer treatment. The chemical structure of 2 bears both hydrophilic (1-D-MT) and hydrophobic (hexadecyl isocyanate) axial ligands, conferring amphiphilic character to the molecule. In some cases, the hexadecyl isocyanate axial ligand facilitate non-covalent binding to human serum albumin, protecting the Pt(IV) center from premature reduction in blood. In the presence of the biodegradable block copolymer, poly(lactic-co-glycolic acid)-polyethylene glycol (PLGA-PEG), 2 readily self-assembles into NPs suitable for preclinical studies (FIG. 5A). […] Having obtained the nanoparticles, the ability of 2 and its NP to induce apoptosis was investigated. Translocation of phosphatidylserine residues to the exterior is a characteristic of apoptotic cells, which have a compromised cell membrane, and can be detected by annexin V. Using a dual staining annexin V/sytox green apoptosis dead cell assay, we examined the apoptotic behavior of SKOV3 cells after 72 h of treatment with 2 and its NP by flow cytometry.

Series [5] deals with SKOV3 cells. As to the kind of experiment: Cell cycle analysis by flow cytometry (DNA content). (In flow cytometry, cells or beads pass a laser one at a time.)
A further series has as its system Eμ-Myc lymphoma cells. As to the kind of experiment: RNAi signature (GFP competition) assay. The conditions noted are these: LD80-90 dose, 72 h.
In another series the target is IDO (Homo sapiens, UniProt P14902). As to the kind of experiment: Cellular determination of kynurenine by HPLC in medium of SKOV3 cells. As to conditions: 2 10 μM vs (D)-1-MT 1 mM.
Chain of IDO (P14902 whole entry): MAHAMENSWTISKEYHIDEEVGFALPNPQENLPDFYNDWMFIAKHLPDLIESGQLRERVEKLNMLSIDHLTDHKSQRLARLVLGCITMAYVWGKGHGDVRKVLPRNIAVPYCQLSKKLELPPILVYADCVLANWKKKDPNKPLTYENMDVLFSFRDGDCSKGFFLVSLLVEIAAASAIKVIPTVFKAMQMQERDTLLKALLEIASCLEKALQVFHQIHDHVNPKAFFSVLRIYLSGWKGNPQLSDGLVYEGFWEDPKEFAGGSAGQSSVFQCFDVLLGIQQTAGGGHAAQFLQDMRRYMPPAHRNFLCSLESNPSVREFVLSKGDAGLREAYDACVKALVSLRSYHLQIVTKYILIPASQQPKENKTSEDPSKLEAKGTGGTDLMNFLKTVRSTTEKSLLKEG

Chain of HSA (P02768 25-609): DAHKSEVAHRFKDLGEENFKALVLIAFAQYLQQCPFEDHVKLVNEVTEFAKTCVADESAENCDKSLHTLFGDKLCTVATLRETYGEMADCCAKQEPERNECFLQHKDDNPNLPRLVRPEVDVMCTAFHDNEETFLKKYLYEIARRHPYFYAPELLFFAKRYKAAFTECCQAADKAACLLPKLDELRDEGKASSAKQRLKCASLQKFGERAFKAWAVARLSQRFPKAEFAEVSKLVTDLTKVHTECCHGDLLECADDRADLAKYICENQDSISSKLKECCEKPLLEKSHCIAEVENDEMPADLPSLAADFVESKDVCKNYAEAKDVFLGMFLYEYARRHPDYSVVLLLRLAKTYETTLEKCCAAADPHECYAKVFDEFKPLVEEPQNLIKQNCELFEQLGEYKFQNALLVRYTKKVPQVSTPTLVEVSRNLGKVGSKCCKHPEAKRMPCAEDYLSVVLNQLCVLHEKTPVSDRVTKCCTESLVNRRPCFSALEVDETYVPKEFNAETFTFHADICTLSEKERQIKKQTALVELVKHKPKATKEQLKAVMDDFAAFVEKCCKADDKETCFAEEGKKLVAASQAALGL

For the compound `CCCCCCCCCCCCCCCCNC(=O)[O][Pt]([NH2])([NH2])([Cl])([Cl])[O]C(=O)CCC(=O)NCCOC(=O)[C@H](N)Cc1cn(C)c2ccccc12` (mixture of isomers) [Compound 2, cis,cis,trans-[Pt(NH3)2Cl2(O2CC2H4OCNHC2H4O2C-D-1MT)(O2CNHC16H33)]], the “expression of DNA damage response markers” value in the series on SKOV3 cells [1] was “marked time-dependent increase in expression of phosphorylated ATR, ATM, BRCA1, Chk1, Chk2, H2AX, and p53”. The “Pt concentration in blood (octanol extract)” value in series [2] (24 h after i.v. NP formulation of 2, 8 mg/kg) is recorded as “non-detectable levels”. Besides, the half-life in [2] (female, Balb/c, mouse, whole blood, iv, 8 mg/kg) is around 1 h. For the same compound, at HSA, the “binding to HSA” value is on record as “binds HSA”. In addition, the “alloreactive T-cell proliferation” value with T-cells is given as “enhancement of alloreactive T-cell proliferation”. Moreover, the half-life at 60 µM in series [3] (fresh whole human blood, whole human blood, 60 μM, 37° C., read-out: t1/2 in human blood (converted)) is 2.2 h. Further, the stability in blood result in series [3] (summary statement) is given as “stable in blood”. The induction of apoptosis entry in the series on SKOV3 cells [4] is given as “induced large populations of SKOV3 cells to undergo apoptosis”. Further, in the series with SKOV3 cells [5], the “cell cycle arrest phase” value was “cell cycle block at G1 phase”. In the series with Eμ-Myc lymphoma cells, the RNAi signature entry was “strong p53 and Chk2 shRNA enrichment”. For the same compound, the “block of kynurenine release in the medium in comparison to (D)-1-MT” value on IDO was “by a factor of three”.

These data come from patent publication US20170129911A1, “COMPLEXES COMPRISING A PLATINUM COMPOUND AND AN IMMUNE CHECKPOINT INHIBITOR AND RELATED METHODS” (Massachusetts Institute of Technology, priority 2015, published 2017).
